# Source: ChEMBL document CHEMBL1156829 (Proc Natl Acad Sci U S A, 2008)
# Columns and labels:
# Plasmodium falciparum [1] = experiment: NOVARTIS: Inhibition of Plasmodium falciparum W2 (drug-resistant) proliferation in erythrocyte-based infection assay; assay type: functional, organism-based; settings: Plasmodium falciparum, W2; read-out: EC50
# Plasmodium falciparum [2] = experiment: NOVARTIS: Inhibition of Plasmodium falciparum 3D7 (drug-susceptible) proliferation in erythrocyte-based infection assay; assay type: functional, organism-based; settings: Plasmodium falciparum, 3D7
# [3] = NOVARTIS: Cytotoxicity against human hepatocellular carcinoma cell line (Huh7); assay type: toxicity, cell-based, Huh-7; settings: Huh7 cells (hepatocellular carcinoma cell line)
smiles,measurement,setting,value
COc1cc(CNc2ccc3nc(N)nc(N)c3c2)cc(OC)c1OC,EC50,Plasmodium falciparum [1],> 1250 nM
same,EC50,Plasmodium falciparum [2],> 1030 nM
same,CC50,[3],> 10000 nM
O=c1c(=Cc2ccc(-c3ccc([N+](=O)[O-])cc3Cl)o2)sc2nc3ccccc3n12,EC50,Plasmodium falciparum [1],> 1250 nM
same,EC50,Plasmodium falciparum [2],> 1130 nM
same,CC50,[3],> 10000 nM
COc1ccc(-c2ccc(C=C3C(=O)NC(=S)NC3=O)o2)cc1Cl,EC50,Plasmodium falciparum [1],> 1250 nM
same,EC50,Plasmodium falciparum [2],> 1040 nM
same,CC50,[3],> 10000 nM
CN(C)CCN1CCN(c2cncc(-c3cccnc3)n2)CC1,EC50,Plasmodium falciparum [1],> 1250 nM
same,EC50,Plasmodium falciparum [2],> 1110 nM
same,CC50,[3],> 10000 nM
CCNC(=O)NS(=O)(=O)c1cnccc1Sc1cccc(C)c1,EC50,Plasmodium falciparum [1],> 1250 nM
same,EC50,Plasmodium falciparum [2],> 1030 nM
same,CC50,[3],> 10000 nM
CC1CCCCN1CCCNc1ncc(C(=O)NCCc2ccccc2)c(Nc2ccccc2)n1 (stereo not given),EC50,Plasmodium falciparum [1],> 1250 nM
same,EC50,Plasmodium falciparum [2],1120 nM
same,CC50,[3],> 10000 nM
COc1cc2c(cc1OC)C(=NN=C1NC(C)(C)Cc3ccccc31)NC(C)(C)C2,EC50,Plasmodium falciparum [1],> 1250 nM
same,EC50,Plasmodium falciparum [2],1040 nM
same,CC50,[3],> 10000 nM
CC(C)CC1=Nc2cc(C(=O)NC(C)C)ccc2CN1Cc1ccccc1,EC50,Plasmodium falciparum [1],> 1250 nM
same,EC50,Plasmodium falciparum [2],> 1030 nM
same,CC50,[3],> 10000 nM
CCCc1cc2c(=O)c(-c3cc4ccccc4o3)coc2cc1OC(C)C(=O)OCC (stereo not given),EC50,Plasmodium falciparum [1],> 1250 nM
same,EC50,Plasmodium falciparum [2],> 1170 nM
same,CC50,[3],> 10000 nM
c1ccc(COCC[N+]2(Cc3ccccc3)CCCCC2)cc1,EC50,Plasmodium falciparum [1],> 1250 nM
same,EC50,Plasmodium falciparum [2],> 1160 nM
same,CC50,[3],> 10000 nM
COc1cc2c(cc1/C=C(/C#N)c1cccc(C)c1)OCO2,EC50,Plasmodium falciparum [1],> 1250 nM
same,EC50,Plasmodium falciparum [2],> 1060 nM
same,CC50,[3],> 10000 nM
COc1ccc(CN2CCc3nnc(CCc4ccccc4)n3CC2)c(F)c1,EC50,Plasmodium falciparum [1],> 1250 nM
same,EC50,Plasmodium falciparum [2],> 1060 nM
same,CC50,[3],> 10000 nM
COc1ccc2nc(NC(=O)c3ccc(C#N)cc3)sc2c1,EC50,Plasmodium falciparum [1],> 1250 nM
same,EC50,Plasmodium falciparum [2],> 1060 nM
same,CC50,[3],> 10000 nM
O=C(Nc1ccc2c(c1)S(=O)(=O)c1cc(NC(=O)c3cccs3)ccc1-2)c1cccs1,EC50,Plasmodium falciparum [1],> 1250 nM
same,EC50,Plasmodium falciparum [2],1110 nM
same,CC50,[3],> 10000 nM
CCOc1ccc2cc(C#N)c(SCC(=O)N3CC(=O)Nc4ccccc43)nc2c1,EC50,Plasmodium falciparum [1],> 1250 nM
same,EC50,Plasmodium falciparum [2],> 1110 nM
same,CC50,[3],> 10000 nM
Cc1ccc2oc(=O)c3cnn(CC(=O)Nc4ccc(F)cc4Cl)c3c2c1,EC50,Plasmodium falciparum [1],> 1250 nM
same,EC50,Plasmodium falciparum [2],> 1150 nM
same,CC50,[3],> 10000 nM
COc1cccc(/C=C2/SC(=Nc3ccccc3)NC2=O)c1OC,EC50,Plasmodium falciparum [1],> 1250 nM
same,EC50,Plasmodium falciparum [2],> 1150 nM
same,CC50,[3],> 10000 nM
CC(C)CNC(=O)c1cnc(NCCCN2CCCCC2C)nc1Nc1ccccc1 (stereo not given),EC50,Plasmodium falciparum [1],> 1250 nM
same,EC50,Plasmodium falciparum [2],1150 nM
same,CC50,[3],> 10000 nM
CC1CCCN(Cc2nnnn2-c2ccc(Cl)cc2)C1 (stereo not given),EC50,Plasmodium falciparum [1],> 1250 nM
same,EC50,Plasmodium falciparum [2],> 1010 nM
same,CC50,[3],> 10000 nM
COC(=O)C1=C(C)N/C(=C/c2cc(C)n(-c3ccc(Cl)c(Cl)c3)c2C)C1=O,EC50,Plasmodium falciparum [1],> 1250 nM
same,EC50,Plasmodium falciparum [2],> 1020 nM
same,CC50,[3],> 10000 nM
CCOC(=O)c1c(NC(=O)Cc2ccc([N+](=O)[O-])cc2)sc2c1CCCC2,EC50,Plasmodium falciparum [1],> 1250 nM
same,EC50,Plasmodium falciparum [2],> 1060 nM
same,CC50,[3],> 10000 nM
COc1ccccc1-c1nnc(Nc2nc3cc4c(cc3s2)OCO4)o1,EC50,Plasmodium falciparum [1],> 1250 nM
same,EC50,Plasmodium falciparum [2],> 1050 nM
same,CC50,[3],> 10000 nM
COc1ccc(CN2CCN(C(=O)c3sc4ncn(Cc5ccccc5F)c(=O)c4c3C)CC2)c(OC)c1OC,EC50,Plasmodium falciparum [1],> 1250 nM
same,EC50,Plasmodium falciparum [2],1010 nM
same,CC50,[3],> 10000 nM
Cc1c(Cl)cccc1NC(=O)CCC(=O)NNC(=O)c1ccccc1,EC50,Plasmodium falciparum [1],> 1250 nM
same,EC50,Plasmodium falciparum [2],> 1010 nM
same,CC50,[3],> 10000 nM
CNC(=O)[C@@H]1C[C@@H](NCc2ccc(OC)cc2)CN1Cc1ccccc1,EC50,Plasmodium falciparum [1],> 1250 nM
same,EC50,Plasmodium falciparum [2],> 1100 nM
same,CC50,[3],> 10000 nM
COc1ccc(-n2nc(C(=O)NCC(=O)Nc3ccc(F)cc3)c3ccccc3c2=O)cc1Cl,EC50,Plasmodium falciparum [1],> 1250 nM
same,EC50,Plasmodium falciparum [2],> 1140 nM
same,CC50,[3],> 10000 nM
COCCn1c(=S)[nH]c2cc(C(=O)NCCc3ccc(S(N)(=O)=O)cc3)ccc2c1=O,EC50,Plasmodium falciparum [1],> 1250 nM
same,EC50,Plasmodium falciparum [2],> 1080 nM
same,CC50,[3],> 10000 nM
COc1ccc(C2C(C(=O)O)c3ccccc3C(=O)N2c2ccc(C)cc2)cc1OC (stereo not given),EC50,Plasmodium falciparum [1],> 1250 nM
same,EC50,Plasmodium falciparum [2],> 1080 nM
same,CC50,[3],> 10000 nM
COc1ccc([C@@H]2C[C@H](OC(=O)c3ccc4c(c3)OCO4)C(=O)N2C)cc1,EC50,Plasmodium falciparum [1],> 1250 nM
same,EC50,Plasmodium falciparum [2],1180 nM
same,CC50,[3],> 10000 nM
NC(=O)/C(=C\c1cccc2ccccc12)NC(=O)c1ccccc1,EC50,Plasmodium falciparum [1],> 1250 nM
same,EC50,Plasmodium falciparum [2],> 1140 nM
same,CC50,[3],> 10000 nM
O=c1c2c3c(sc2ncn1CC1CCCCC1)CC(NCc1cccnc1)CC3 (stereo not given),EC50,Plasmodium falciparum [1],> 1250 nM
same,EC50,Plasmodium falciparum [2],> 1040 nM
same,CC50,[3],> 10000 nM
O=c1c2c3c(sc2[nH]c(=S)n1C1CCCCC1)CN(Cc1ccccc1)CC3,EC50,Plasmodium falciparum [1],> 1250 nM
same,EC50,Plasmodium falciparum [2],> 1040 nM
same,CC50,[3],> 10000 nM
CC1CC(C)(C)NC(=S)N1CCC(=O)NCCc1ccccc1 (stereo not given),EC50,Plasmodium falciparum [1],> 1250 nM
same,EC50,Plasmodium falciparum [2],1010 nM
same,CC50,[3],> 10000 nM
CCOC(=O)N1CCN(C(=O)CCCCn2c(=S)[nH]c3ccsc3c2=O)CC1,EC50,Plasmodium falciparum [1],> 1250 nM
same,EC50,Plasmodium falciparum [2],> 1130 nM
same,CC50,[3],> 10000 nM
CCOC(=O)c1sc(NC(=O)CSc2nnc(CNC(=O)COc3ccccc3)n2C)c(C(=O)OCC)c1C,EC50,Plasmodium falciparum [1],> 1250 nM
same,EC50,Plasmodium falciparum [2],> 1080 nM
same,CC50,[3],> 10000 nM
Cc1ccc(S(=O)(=O)Nc2nc3n(n2)C(c2ccccc2)C=C(c2ccccc2)N3)cc1 (stereo not given),EC50,Plasmodium falciparum [1],> 1250 nM
same,EC50,Plasmodium falciparum [2],> 1070 nM
same,CC50,[3],> 10000 nM
CC(C)CN(CC(O)CN(CCN1CCOCC1)S(=O)(=O)Cc1ccccc1)C(=O)C1CCCN1C(=O)OC(C)(C)C (stereo not given),EC50,Plasmodium falciparum [1],> 1250 nM
same,EC50,Plasmodium falciparum [2],> 1130 nM
same,CC50,[3],> 10000 nM
O=C1OC(c2ccccc2)=NC1=C(Cl)Cl,EC50,Plasmodium falciparum [1],> 1250 nM
same,EC50,Plasmodium falciparum [2],> 1160 nM
same,CC50,[3],> 10000 nM
CCC(C)(C#CCN1CCCC1)OC(C)=O (stereo not given),EC50,Plasmodium falciparum [1],> 1250 nM
same,EC50,Plasmodium falciparum [2],> 1050 nM
same,CC50,[3],> 10000 nM
CC(=O)OC1C(NC(=O)c2cc([N+](=O)[O-])c(N(C)C)c([N+](=O)[O-])c2)OC(C(=O)N2CCOCC2)C(OC(C)=O)C1OC(C)=O (stereo not given),EC50,Plasmodium falciparum [1],> 1250 nM
same,EC50,Plasmodium falciparum [2],> 1090 nM
same,CC50,[3],> 10000 nM
Cc1cc2ncn(N=Cc3cccnc3)c2cc1C,EC50,Plasmodium falciparum [1],> 1250 nM
same,EC50,Plasmodium falciparum [2],> 1020 nM
same,CC50,[3],> 10000 nM
COc1ccc(/C=C\c2cc[n+](C)cc2)cc1OC,EC50,Plasmodium falciparum [1],> 1250 nM
same,EC50,Plasmodium falciparum [2],1110 nM
same,CC50,[3],> 10000 nM
Cc1ccc(-c2nn(CC(=O)Nc3cccc(C)c3)c(=O)c3ccccc23)cc1,EC50,Plasmodium falciparum [1],> 1250 nM
same,EC50,Plasmodium falciparum [2],> 1090 nM
same,CC50,[3],> 10000 nM
CCOC(=O)C[n+]1cc(CC)sc1N,EC50,Plasmodium falciparum [1],> 1250 nM
same,EC50,Plasmodium falciparum [2],> 1070 nM
same,CC50,[3],> 10000 nM
COC(=O)C1=C(C(=O)OC)SC(=C2C(=S)C(C)(C)Nc3cc(C)ccc32)S1,EC50,Plasmodium falciparum [1],> 1250 nM
same,EC50,Plasmodium falciparum [2],> 1140 nM
same,CC50,[3],> 10000 nM
Cc1ccc(-n2c(SCc3cc(=O)n4ccccc4n3)nc3ccsc3c2=O)cc1C,EC50,Plasmodium falciparum [1],> 1250 nM
same,EC50,Plasmodium falciparum [2],> 1160 nM
same,CC50,[3],> 10000 nM
O=C(O)c1ccc(C=NNc2ccc([N+](=O)[O-])cc2)cc1,EC50,Plasmodium falciparum [1],> 1250 nM
same,EC50,Plasmodium falciparum [2],> 1160 nM
same,CC50,[3],> 10000 nM
COc1ccccc1NC(=O)c1n[nH]c(=O)c2ccccc12,EC50,Plasmodium falciparum [1],> 1250 nM
same,EC50,Plasmodium falciparum [2],> 1060 nM
same,CC50,[3],> 10000 nM
O=C1NCCCCC1N(Cc1cccc(Oc2ccccc2)c1)C(=O)c1ccc(F)cc1 (stereo not given),EC50,Plasmodium falciparum [1],> 1250 nM
same,EC50,Plasmodium falciparum [2],> 1060 nM
same,CC50,[3],> 10000 nM
CC(=O)Nc1cccc(NC(=O)CSc2ccc3nnc(-c4ccc(F)cc4)n3n2)c1,EC50,Plasmodium falciparum [1],> 1250 nM
same,EC50,Plasmodium falciparum [2],> 1050 nM
same,CC50,[3],> 10000 nM
COc1cccc(N2C(=O)/C(=C/c3cccnc3)SC2=S)c1,EC50,Plasmodium falciparum [1],> 1250 nM
same,EC50,Plasmodium falciparum [2],> 1140 nM
same,CC50,[3],> 10000 nM
O=C(NN=Cc1ccc(Br)cc1)c1ccco1,EC50,Plasmodium falciparum [1],> 12500 nM
same,EC50,Plasmodium falciparum [2],11400 nM
same,CC50,[3],> 100000 nM
Cn1c(=O)n(C)c2cc(C=NN=c3[nH]cc(-c4ccccc4)s3)ccc21,EC50,Plasmodium falciparum [1],> 1250 nM
same,EC50,Plasmodium falciparum [2],> 1070 nM
same,CC50,[3],> 10000 nM
C#CC(C)(C)NS(=O)(=O)c1cc(-c2nnc(Nc3cccc(C)c3)c3ccccc23)ccc1C,EC50,Plasmodium falciparum [1],> 1250 nM
same,EC50,Plasmodium falciparum [2],1040 nM
same,CC50,[3],> 10000 nM
COc1ccc(-n2c(=S)[nH]c3cc(C(=O)Nc4cccc(C)c4)ccc3c2=O)cc1OC,EC50,Plasmodium falciparum [1],> 1250 nM
same,EC50,Plasmodium falciparum [2],> 1040 nM
same,CC50,[3],> 10000 nM
